Our source for the ED50, IC50 and inhibition in vivo values is US5118691A, “Substituted tetrahydropyridines as central nervous system agents” (Warner-Lambert Co., priority 1991, dated 1992).

In experiment [1] the test system is locomotor activity in mice. Kind of experiment: Inhibition of locomotor activity in mice. The class given is in vivo. Conditions: Mus musculus, IP. On the procedure:
(§1) The compounds of Formula I are valuable dopaminergic agents. […] Thus, the compounds of Formula I were tested for their ability to inhibit locomotor activity in mice according to the assay described by J. R. McLean, et al, Pharmacology, Biochemistry and Behavior, Volume 8, pages 97-99 (1978); for their ability to inhibit [^3 H]-spiroperidol binding in a receptor assay described by D. Grigoriadis and P. Seeman, Journal of Neurochemistry, Volume 44, pages 1925-1935 (1985); and for their ability to inhibit dopamine synthesis in rats according to the protocol described by J. R. Walters and R. H. Roth, Naunyn-Schmiedeberg's Archives of Pharmacology, Volume 296, pages 5-14 (1976). The above test methods are incorporated herein by reference. The data in the table show the dopaminergic activity of representative compounds of Formula I.

Experiment [2] deals with T1, [^3 H]-spiroperidol binding (Rattus norvegicus, UniProt P61169).
T1 construct: from tissue; host or cells: brain striatum (own knowledge from the cited method)
Kind of experiment: Inhibition of [^3 H]-spiroperidol binding in a receptor assay. On the procedure:
as §1

Experiment [3] concerns Brain Dopamine Synthesis. Description: Inhibition of dopamine synthesis in rats (reversal of brain dopamine synthesis). The conditions noted are these: Rattus norvegicus, IP. The class given is in vivo. The method, then:
as §1

[4] abbreviates: read-out: Inhibition of [^3 H]Spiroperidol Binding IC50.

pIC50: −log10 of the molar value. Where two headings read alike, the source gives them in different places.

T1 sequence (P61169 whole entry): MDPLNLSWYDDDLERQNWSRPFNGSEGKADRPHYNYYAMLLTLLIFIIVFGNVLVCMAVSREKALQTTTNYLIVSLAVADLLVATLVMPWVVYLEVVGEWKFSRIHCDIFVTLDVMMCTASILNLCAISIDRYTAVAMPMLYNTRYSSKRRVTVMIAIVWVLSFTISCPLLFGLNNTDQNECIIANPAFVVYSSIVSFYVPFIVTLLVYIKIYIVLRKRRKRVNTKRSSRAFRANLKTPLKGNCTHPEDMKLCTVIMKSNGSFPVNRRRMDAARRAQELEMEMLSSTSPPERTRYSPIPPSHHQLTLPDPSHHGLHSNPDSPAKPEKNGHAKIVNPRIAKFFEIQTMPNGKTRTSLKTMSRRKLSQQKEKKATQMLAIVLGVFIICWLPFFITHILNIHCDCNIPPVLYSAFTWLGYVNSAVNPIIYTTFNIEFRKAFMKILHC

With `C1=C(c2ccccc2)CCN(CCCCc2ccncc2)C1` [Example 1, 4-[4-(3,6-Dihydro-4-phenyl-1(2H)-pyridinyl)butyl]-pyridine], the ED50 in experiment [1] worked out at 0.6 mg/kg. This molecule showed a pIC50 in experiment [2] of 7.02. In experiment [3], the inhibition in vivo at 10 mg/kg was found to be 87%.
In experiment [1], `C1=C(c2ccccn2)CCN(CCCCc2ccncc2)C1` [Example 2, 2-[1,2,3,6-Tetrahydro-1-[4-(4-pyridinyl)butyl]-4-pyridinyl]pyridine] returned an ED50 of 0.7 mg/kg. Besides, in experiment [2] (setting [4]), the pIC50 is 6.35. Also, the inhibition in vivo at 10 mg/kg in experiment [3] was 88%.
Consider `C1=C(c2c[nH]c3ccccc23)CCN(CCCCc2ccncc2)C1` [Example 3], for which the ED50 in experiment [1] stood at 5 mg/kg. In experiment [2] (setting [4]), the pIC50 is 6.40.
As to `C1=C(c2cccs2)CCN(CCCCc2ccncc2)C1` [Example 4, 4-[4-[3,6-Dihydro-4-(2-thienyl)-1(2H)-pyridinyl]-butyl]pyridine], the 50% effective dose (ED50) in experiment [1] amounted to 1.2 mg/kg. The molecule further showed a negative-log IC50 (pIC50) in experiment [2] of 6.16.
In experiment [1], `C1=C(c2ccccc2)CCN(CCCc2ccncc2)C1` [Example 5, 4-[3-(3,6-Dihydro-4-phenyl-1(2H)-pyridinyl)propyl]-pyridine] had an ED50 of 0.63 mg/kg. Besides, the inhibition in vivo at 10 mg/kg in experiment [3] turned out to be 61%.
In turn, `C1=C(c2ccccc2)CCN(CCCCCc2ccncc2)C1` [Example 7, 4-[5-(3,6-Dihydro-4-phenyl-1(2H)-pyridinyl)pentyl]-pyridine] displayed a median effective dose (ED50) in experiment [1] of 0.9 mg/kg.
As for `C1=C(c2cccs2)CCN(CCCCc2cccnc2)C1` [Example 8, 3-[4-[3,6-Dihydro-4-(2-thienyl)-1(2H)-pyridinyl]-butyl]pyridine], in experiment [1], the ED50 is 0.66 mg/kg. The pIC50 in experiment [2] (setting [4]) is 5.89. Also, the inhibition in vivo at 10 mg/kg in experiment [3] turned out to be 71%.
Regarding `O=C(CCCN1CC=C(c2ccccc2)CC1)c1cccnc1` [Example 9, 4-(3,6-Dihydro-4-phenyl-1(2H)-pyridinyl)-1-(3-pyridinyl)-1-butanone], it took a dose of 1.1 mg/kg to reach the 50% effect level in experiment [1] (ED50). Besides, in experiment [3], the inhibition in vivo at 10 mg/kg was 50%.
For the molecule `O=C(CCCN1CC=C(c2ccccc2)CC1)c1ccncc1` [Example 10, 4-(3,6-Dihydro-4-phenyl-1(2H)-pyridinyl)-1-(4-pyridinyl)-1-butanone], the 50% effect level in experiment [1] (ED50) was put at a dose of 1 mg/kg. Also, the pIC50 in experiment [2] (setting [4]) was 6.39. The inhibition in vivo at 10 mg/kg in experiment [3] was 57%.
As to `C1=C(c2ccccc2)CCN(CCCCc2cccnc2)C1` [Example 12, 3-[4-(3,6-Dihydro-4-phenyl-1(2H)-pyridinyl)butyl]-pyridine], the 50% effect level in experiment [1] (ED50) was put at a dose of 0.28 mg/kg. Besides, the pIC50 in experiment [2] (setting [4]) is 6.77. For the same molecule, the inhibition in vivo at 10 mg/kg in experiment [3] turned out to be 80%.
`C1=C(c2ccccc2)CCN(CCCCc2cnc3ccccc3c2)C1` [Example 13, 3-[4-(3,6-Dihydro-4-phenyl-1(2H)-pyridinyl)butyl]-quinoline] registered an ED50 in experiment [1] of 0.37 mg/kg. Besides, the pIC50 in experiment [2] was 7.34. Also, in experiment [3], the inhibition in vivo at 10 mg/kg was 100%.
Consider `C1=C(c2cccs2)CCN(CCCCc2cnc3ccccc3c2)C1` [Example 14], for which the ED50 in experiment [1] was determined as 1.5 mg/kg.
In experiment [1], `C1=C(c2ccccn2)CCN(CCCCc2cnc3ccccc3c2)C1` [Example 15, 3-[4-[3,6-Dihydro-4-(2-pyridinyl)-1(2H)-pyridinyl]-butyl]quinoline] had an ED50 of 0.14 mg/kg.
